The results in this text go back to a melting point compilation (Tetko et al.; mined from patent text by program, amines drawn as free bases though some values may be those of a salt).

Where only a bound is given, the exact number is not on record here.

Broadly, the melting point is the temperature of the solid-liquid transition.

The compound `Cc1ccccc1OCCN1CCC(CNc2nc3ccccc3s2)CC1` gave a melting point of 126 °C.
`CN(C)c1nc2n(n1)CCc1ccccc1-2` returned a melting point of 66 to 68 °C.
`COC(=O)C1(NC(=O)OCc2ccccc2)CCC(=O)O1` (stereo not given) had a melting point of 134 °C.
Then `Cc1cccc(NC(=O)NC2N=C(C3CCCC3)c3ccccc3N(CC(=O)N3CC4CCC(CC4)C3)C2=O)c1` (racemic), with 132 to 134 °C; and `COc1cccc(C(=Cc2ccccc2)c2cccc(OC)c2OC)c1OC`, with 138 °C.
The compound `COc1cc2c(-c3ccc(Cl)cc3)csc2c(Cl)c1Cl` returned a melting point of 190 to 191 °C.
In turn, `COc1ccc2c(c1)c(O)c(C#N)n2-c1ccccc1` gave a melting point of 182 °C.
`CCOc1ccn([C@H]2CS[C@@H](CO)O2)c(=O)n1` (relative stereo) came in with a melting point of 117 to 118 °C.
For `CCCC(=O)N(NC(N)=S)c1ccccc1`, the melting point lay in the range of 219 to 221 °C.
In the case of `O=[N+]([O-])c1ccccc1NC1CCN(Cc2ccccc2)CC1`, the melting point was 93.4 to 94.6 °C.
`NS(=O)(=O)c1cc(C(=O)CBr)ccc1Cl`: the melting point was found to be 169 °C.
The compound `O=C(NCC1CC1)c1ccc(-c2ccc3nnn(Cc4ccc5ncccc5c4)c3n2)cc1F` had a melting point of 120 to 122 °C.
The compound `CCOC(=O)c1cn(Cc2ccc(OCc3coc(-c4ccccc4)n3)cc2)nc1-c1cccs1` registered a melting point of 114 to 115 °C.
`O=C1CCC(N2Cc3c(OCc4ccc(CN5CCN(C(=O)CCCCC6SCC7NC(=O)NC76)CC5)cc4)cccc3C2=O)C(=O)N1` (stereo not given) yielded a melting point of 168 to 170 °C.
The compound `O=C(Oc1ccc(Oc2ccc(C(F)(F)F)cn2)cc1)N1CCN(c2cnccn2)CC1` had a melting point of 160 to 161 °C.
On to `CC(C)OC(=O)C(=C1SC=CS1)S(=O)(=O)C(C)C`, for which the melting point was 124 to 125 °C.
`O=C(O)COc1ccc(SSc2ccc(OCC(=O)O)c(Br)c2)cc1Br` had a melting point of 146 to 150 °C.
`O=[N+]([O-])c1cccc(-c2ccnc3[nH]c4ccccc4c23)c1` had a melting point of over 220 °C.
Then `COc1ccc(C(=O)Nc2ccc3ccc(SC)nc3n2)cc1`, with 130 °C; and `CCCCCCCCCC=C1OC(=O)N(CCCCSc2cccc3nccn23)C1=O`, with 46 to 48 °C.
`Oc1ncnc2c1c(Nc1ccccc1)nn2Cc1ccccc1` registered a melting point of 246 to 247 °C.
In turn, `CC(C)c1cccc(C(C)C)c1NC(=O)N(Cc1ccc(O)cc1)CC1(c2cccc(N(C)C)c2)CCCCC1` registered a melting point of 166 to 168 °C.
The same measure for `O=C(Cl)CN1C(=O)c2ccc([N+](=O)[O-])cc2C1=O`: 129 to 130 °C; for `COc1ccccc1Cn1c(=O)c2c(N3CCNCC3)cc(Cl)cc2n(Cc2ccccc2)c1=O`: 122 to 125 °C.
`O=C(O)[C@@]1(O)C[C@@H](O)[C@H](O)C2=C1CC(Cc1ccccc1)(Cc1ccccc1)S2` registered a melting point of 209 to 212 °C.
`COc1ccc([N+](=O)[O-])c(CS(=O)(=O)c2ccccc2)c1` showed a melting point of 167 to 169 °C.
Then `Nc1nc(Oc2ccccc2)nc2nc(-c3ccco3)nn12`, with 250 to 252 °C.
Compound `CCc1nc(OC)c(NC(=O)N2CCN(c3cccc(F)c3)CC2)cc1C(=O)NC(C)C(=O)Nc1cc(CO)cc(Nc2c3ccccc3nc3ccccc23)c1` (stereo not given) registered a melting point of 208 to 210 °C.
`COc1ccc(-c2c3c(cc4ccc(O)cc24)-c2ccc(O)cc2CO3)cc1OC`: the melting point was in the range of 245 to 248 °C.
In turn, `O=C1c2ccccc2C(Cc2ccncc2)(Cc2ccncc2)C(=O)N1c1ccccc1` displayed a melting point of over 270 °C.
`CCOC(=O)C(F)(F)c1ccc(NC(=O)c2ccc3c(c2)C(C)(C)CCC3(C)C)cc1` showed a melting point of 183 °C.
For the compound `COc1cc([N+](=O)[O-])c(NC(C)=O)cc1Cl`, the melting point lay in the range of 152 to 153 °C.
Compound `COC1CCC2C3CCC4CC(C)(O)CCC4(C)C3CCC12C` (stereo not given) registered a melting point of 151 to 154 °C.
Consider `COP(=O)(CN[C@@H](Cc1ccc(-c2ccccc2)cc1)C(=O)O)OC`, for which the melting point was in the range of 133 to 136 °C.
`O=C(O)CCCc1cc2nc(C(F)(F)F)ccc2n1S(=O)(=O)c1cccc2ccccc12` registered a melting point of 195 °C.
In turn, `O=Cc1cc2sc3ccccc3c2c2ccccc12` gave a melting point of 142 to 144 °C.
`CN(Cc1ccc(Cl)cc1)C(=O)C12CC3CC(CC(C3)C1)C2` came in with a melting point of 65 to 66.5 °C.
Then `CNC(=O)c1cccc(C=O)c1`, with 101 to 102 °C; and `CCOC(=O)CCCn1cc(C(=O)c2ccc(N)c(OCCCCl)c2)c2ccccc21`, with 93 to 95 °C; and `O=C1c2ccccc2C(=O)c2c1cc(CBr)c1c2CCC1`, with 225 to 230 °C.
`CCc1cn(C2CC(I)C(CO)O2)c(=O)[nH]c1=O` (stereo not given) displayed a melting point of 162 to 164 °C.
Turning to `O=C(O)c1cc(-n2c(-c3cccc(C(F)(F)F)c3)cc3c2CCCC3)ccc1O`, the melting point fell in the range of 215 to 225 °C.
`Cc1c(NC(=O)CC(C)(C)C)c(C)c2c(c1-c1cccc(N)n1)OCC2c1ccc(C(C)C)cc1` (stereo not given): the melting point lay in the range of 237 to 239 °C.
Compound `CN1C(=O)NC2(CCCCC2)C1=O` gave a melting point of 214 to 215 °C.
For the compound `O=C1c2ccc([N+](=O)[O-])cc2COc2cc(Nc3ccc(F)cc3F)ccc21`, the melting point lay within 210 to 214 °C.
The compound `C[C@H]([C@](O)(Cn1cncn1)c1ccc(F)cc1F)S(=O)(=O)N1CCOCC1` gave a melting point of 157 to 158 °C.
Then `CC(=O)C(=Cc1ccc(Br)s1)C(C)=O`, with 70 to 74 °C.
`Cc1nc2c(N)nc3ccncc3c2n1C` came in with a melting point of 330 to 335 °C.
`COc1cc(N(C)C(=O)CN2CCN(C)CC2)ccc1N` returned a melting point of 115 to 118 °C.
`Cc1ccccc1Nc1cccc(-c2ccccc2)c1CN`: the melting point is 103 to 105 °C.
In turn, `NC(=O)c1cc(OCCNCC(O)COc2ccccc2-c2cc3ccccc3[nH]2)ccc1O` (stereo not given) registered a melting point of 93 to 95 °C.
Then `CCOCC(=O)Nc1cccc(NC)c1C#N`, with 133 to 134 °C; and `COc1cc(C(=O)N2CCN(c3ccc(N)cc3)CC2)cc(OC)c1O`, with 182 to 183 °C; and `Cc1c(-n2ccnc2)n(Cc2ccc(C(=O)O)cc2)c2ccccc12`, with 221 to 225 °C.
`CCOC(=O)C1(C(=O)OCC)CCC2(c3cc(OC)c(OC)cc3CCN2C(C)=O)C(C2c3cc(OC)c(OC)cc3CCN2CC)C1` (stereo not given): the melting point lay in the range of 142 to 144 °C.
For the compound `CCCCSc1cc(C(=O)O)cc(N=Nc2cc(C(=O)O)cc(SCCCC)c2C(=O)c2ccccc2)c1C(=O)c1ccccc1`, the melting point lay within 102 to 103 °C.
Regarding `CC(=CC#Cc1ccccc1)C(=O)NCCCCCC(=O)NO`, the melting point is 135 to 137 °C.
Then `COc1c(C2CCN(CCCCNC(=O)c3oc(-c4ccc(C#N)cc4)nc3C)CC2)ccc2c1CCCC2`, with 157 °C.
On to `Cc1c(-c2cc(Cl)cc(Cl)c2)ccc(N)c1C#N`, for which the melting point is 182 °C.
Turning to `COc1cccc2c1Cc1ccccc1C2(CCO)CCO`, the melting point lay within 164 to 167 °C.
`O=C(CC1(O)C(=O)N(Cc2ccc(Cl)cc2)c2ccccc21)C1CC1` (stereo not given): the melting point was in the range of 102 to 103 °C.
Then `CNC(=S)C1(c2cccnc2)CCCS1=O` (stereo not given), with 204 °C; and `CS(=O)(=O)NCCC(c1cc(F)ccc1F)S(=O)(=O)c1ccc(Cl)cc1` (stereo not given), with 131 to 134 °C.
Compound `COC(CNC(=O)C(CS)CC(C)C)OC` (stereo not given) yielded a melting point of 34 to 37 °C.
On to `O=C(NO)[C@H]1CN(S(=O)(=O)c2ccc(-c3ccon3)s2)CCN1S(=O)(=O)c1ccc(-c2ccccc2)s1`, for which the melting point amounted to 204 °C.
As to `CC1(C)OC(=O)C(Sc2ccccc2)=C1c1ccc(S(C)(=O)=O)cc1`, the melting point was in the range of 98 to 114 °C.
Compound `CCOC(=O)c1cc2n(c1)CN(CCC#N)c1c(OC)cccc1-2` displayed a melting point of 146 to 147 °C.
`Cc1oc(-c2ccc(C(F)(F)F)cc2)nc1COc1ccc(CN(O)C(=O)NN)cc1` came in with a melting point of 94 to 95 °C.
Turning to `COc1cc(F)ccc1Nc1ccc2c(c1)OCc1cc(N)ccc1C2=O`, the melting point amounted to 38.9 °C.
In turn, `Nc1cc(C(F)(F)F)c(Br)cc1S(=O)(=O)c1ccccc1` registered a melting point of 169 to 171 °C.
`NC(=O)C1CCN(c2cccc3c2OCCO3)CC1`: the melting point is 194 °C.
Then `Cc1cccc(-c2nc3ccc(OCCN(C)C)cc3n2Cc2ccccc2C(F)(F)F)c1`, with 93 °C; and `C=C1N(C2CCCCC2)C(=O)OC12CCN(CCC=C(c1ccc(F)cc1)c1ccc(F)cc1)CC2`, with 145 to 146 °C.
The compound `Cc1cc2c(cc1O)C(C1(C3CCCc4ccccc43)CC1)N(C)CC2` (stereo not given) came in with a melting point of 160 to 163 °C.
Then `CCOC(=O)Cc1nnc(-c2cc3cccc(N(C)S(=O)(=O)c4cccs4)c3[nH]2)s1`, with 201 to 202 °C; and `CC(=O)NC[C@H]1CN(c2ccc(N3CCC4(CC3)COCCO4)c(F)c2)C(=O)O1`, with 114 to 116 °C; and `CC(C)(C)c1ccc(/C=C/C(=O)OCc2ccccc2)cc1`, with 59 to 62 °C.
In turn, `CC(=O)CC(=O)N1N=C(c2ccc([N+](=O)[O-])cc2)c2cc3c(cc2CC1C)OCO3` (stereo not given) gave a melting point of 169 to 171 °C.
Then `CC(=O)Nc1ccc(S(=O)(=O)Nn2cc(-c3ccccc3)c3ccccc32)cc1`, with 190 to 193 °C; and `CCCCCCCCCC/C=C/c1ccccc1/C=C/C(=O)O`, with 85 to 86 °C.
Then `O=C1CCC(=O)N1Cc1nc2sc3c(c2c(-c2ccc(Cl)cc2)c1Cl)CCN(Cc1ccccc1)C3`, with 254 to 255 °C.
The same measure for `CC(=O)NC(=O)c1cccc(-c2noc(-c3ccccc3F)n2)c1`: 119 to 120 °C; for `COc1ccc(/C=C/c2nc3ccccc3n2-c2ccccn2)cc1`: 146 °C.
The compound `O=C(O)CN(CC(=O)O)c1cc(OCCCCCCCCCCCCOc2ccccc2)cc(OCCCCCCc2cccc(O)c2O)c1` showed a melting point of 129 to 131 °C.
As for `Clc1cc(CBr)c2noc(-c3ccc(Br)cc3)c2c1`, the melting point was 147 to 150 °C.
